Reference: PubChem BioAssay AID248 (DTP/NCI, 2004)
Inconclusive results and toxic doses are left out. Cut-off read from the data, not from the text of the source: active = T/C of 150% or more; inactive = T/C below 125%.

Tested on: L1210 leukemia ip in BDF1 mice, survival T/C
Assay: NCI In Vivo Anticancer Drug Screen. Data for tumor model L1210 Leukemia (intraperitoneal) in B6D2F1 (BDF1) mice
Conditions: endpoint: mean survival time, higher = longer survival
In short: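 Transplanted-tumor mice were given test agent; controls received vehicle only. Survival readings from the two groups were divided (treated over control).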

[1] = dose: 100.0 mg/kg/injection, schedule: Q01DX009 (ip), vehicle: Klucel (hydroxypropylcellulose) (HPC)
[2] = dose: 200.0 mg/kg/injection, schedule: Q01DX009 (ip), vehicle: Klucel (hydroxypropylcellulose) (HPC)

Measured: T/C

c1ccc2cc(C3OCCCO3)ccc2c1
inactive: dose: 100.0 mg/kg/injection, schedule: Q01DX001 (ip), vehicle: Klucel (hydroxypropylcellulose) (HPC) 94 % of control | dose: 200.0 mg/kg/injection, schedule: Q01DX001 (ip), vehicle: Klucel (hydroxypropylcellulose) (HPC) 100 % of control | dose: 400.0 mg/kg/injection, schedule: Q01DX001 (ip), vehicle: Klucel (hydroxypropylcellulose) (HPC) 100 % of control

CO/C=C(\C)C(=O)NC(=O)Nc1ccccc1
inactive: dose: 100.0 mg/kg/injection, schedule: Q01DX001 (ip), vehicle: other 93 % of control | dose: 200.0 mg/kg/injection, schedule: Q01DX001 (ip), vehicle: other 98 % of control | dose: 400.0 mg/kg/injection, schedule: Q01DX001 (ip), vehicle: other 96 % of control

CC(C)(C)C1CCS(=O)(=O)CC1.[Cl][Hg][Cl]
inactive: dose: 0.25 mg/kg/injection, schedule: Q01DX009 (ip), vehicle: saline 97 % of control | dose: 0.5 mg/kg/injection, schedule: Q01DX009 (ip), vehicle: saline 98 % of control | dose: 1.0 mg/kg/injection, schedule: Q01DX009 (ip), vehicle: saline 94 % of control

CCCCOCN1CCCCC1
inactive: dose: 31.0 mg/kg/injection, schedule: Q01DX Z (ip), vehicle: carboxymethylcellulose (CMC) 95 % of control | dose: 62.5 mg/kg/injection, schedule: Q01DX Z (ip), vehicle: carboxymethylcellulose (CMC) 101 % of control | dose: 100.0 mg/kg/injection, schedule: Q04DX003 (ip), vehicle: saline with Tween-80 111 % of control | dose: 125.0 mg/kg/injection, schedule: Q01DX Z (ip), vehicle: carboxymethylcellulose (CMC) 105 % of control | dose: 200.0 mg/kg/injection, schedule: Q04DX003 (ip), vehicle: saline with Tween-80 102 % of control

CC(=O)OCc1cc2cc(O)ccc2nc1C
inactive: dose: 100.0 mg/kg/injection, schedule: Q04DX003 (ip), vehicle: saline 110 % of control | dose: 200.0 mg/kg/injection, schedule: Q04DX003 (ip), vehicle: saline 110 % of control | dose: 400.0 mg/kg/injection, schedule: Q04DX003 (ip), vehicle: saline 116 % of control

OCC1OC(n2ccc3c(N4CCCCC4)ncnc32)C(O)C1O (stereo not given)
inactive: dose: 50.0 mg/kg/injection, schedule: Q01DX001 (ip), vehicle: carboxymethylcellulose (CMC) 93 % of control | dose: 100.0 mg/kg/injection, schedule: Q01DX001 (ip), vehicle: carboxymethylcellulose (CMC) 95 % of control | dose: 200.0 mg/kg/injection, schedule: Q01DX001 (ip), vehicle: carboxymethylcellulose (CMC) 98 % of control | dose: 400.0 mg/kg/injection, schedule: Q01DX001 (ip), vehicle: carboxymethylcellulose (CMC) 93 % of control

OC(c1ccccc1)C1C2C=CC(C2)C1C(O)c1ccccc1 (stereo not given)
inactive: [1] 101 % of control | [2] 86 % of control | dose: 300.0 mg/kg/injection, schedule: Q01DX009 (ip), vehicle: Klucel (hydroxypropylcellulose) (HPC) 95 % of control

Cc1nc(N=C(N)N)nc2ccc(Cl)cc12
inactive: dose: 18.8 mg/kg/injection, schedule: Q04DX003 (ip), vehicle: saline 96 % of control | dose: 37.5 mg/kg/injection, schedule: Q04DX003 (ip), vehicle: saline 105 % of control | dose: 75.0 mg/kg/injection, schedule: Q01DX001 (ip), vehicle: saline 101 % of control | dose: 75.0 mg/kg/injection, schedule: Q04DX003 (ip), vehicle: saline 100 % of control

NC(=O)Oc1ccc(Cc2ccccc2)cc1
inactive: [1] 97 % of control | dose: 100.0 mg/kg/injection, schedule: Q04DX003 (ip), vehicle: Klucel (hydroxypropylcellulose) (HPC) 95 % of control | [2] 103 % of control | dose: 200.0 mg/kg/injection, schedule: Q04DX003 (ip), vehicle: Klucel (hydroxypropylcellulose) (HPC) 97 % of control | dose: 400.0 mg/kg/injection, schedule: Q01DX009 (ip), vehicle: Klucel (hydroxypropylcellulose) (HPC) 110 % of control | dose: 400.0 mg/kg/injection, schedule: Q04DX003 (ip), vehicle: Klucel (hydroxypropylcellulose) (HPC) 95 % of control

O=C(O)CSc1cc(-c2ccc(Cl)cc2)s[s+]1
inactive: dose: 3.12 mg/kg/injection, schedule: Q01DX009 (ip), vehicle: water 98 % of control | dose: 6.25 mg/kg/injection, schedule: Q01DX009 (ip), vehicle: water 97 % of control | dose: 12.5 mg/kg/injection, schedule: Q01DX009 (ip), vehicle: water 96 % of control | dose: 12.5 mg/kg/injection, schedule: Q04DX003 (ip), vehicle: water 94 % of control | dose: 25.0 mg/kg/injection, schedule: Q04DX003 (ip), vehicle: water 93 % of control | dose: 50.0 mg/kg/injection, schedule: Q04DX003 (ip), vehicle: water 86 % of control
